Results on six compounds are retold here after paper PMC12123366, “Effect of urea and squaramide IMPDH inhibitors on C. parvum: in vitro trial design impacts the assessment of drug efficacy” (International Journal for Parasitology: Drugs and Drug …, 2025).

Series [1] has as its system C. parvum. As to the kind of experiment: Inhibition of C. parvum replication in infected HCT-8 cells, parasite quantification by qPCR. It is filed as cell-based, Cryptosporidium parvum (Iowa strain) in human HCT-8 cells. To be noted: qPCR; for anti-cryptosporidial activity (in words): added at T0, 48 hpi. As for the experimental part: (§1) HCT-8 cell lines (Human ileocecal adenocarcinoma) were purchased from The European Collection of Authenticated Cell Cultures (ECACC) under catalogue number No 90032006) and maintained with regular subculturing in a growth medium consisting in a RPMI 1640 medium supplemented with 1 mM sodium pyruvate, 2 mM l-glutamine, 10 % (vol/vol) of heat-inactivated fetal calf serum, 100 U/mL of penicillin and 100 μg/mL of streptomycin. Cells were grown in an incubator at 37 °C with 5 % (vol/vol) CO2 until monolayers reached 80–90 % confluency. Cells were cultivated in 96-well format plate for molecular analysis and in Lab-Tek™ Chamber Slides for microscopic analysis. 50,000 cells were seeded and incubated during 24 h (until confluency) before infection.
(§2) C. parvum oocysts of “Iowa” strain was purchased from Waterborne Inc. and stored in PBS at 4 °C. A ratio of one oocyst per cell was used to infect HCT-8 cell. Oocysts suspension was incubated with 10 % of a solution (vol/vol) containing 0.5 % sodium hypochlorite for 10 min at 4 °C. After a washing step by centrifugation at 1800g for 15 min at 4 °C, oocysts were incubated in acidified water (pH 2.4) containing 0.025 % (wt/vol) of trypsin, at 37 °C for 20 min, to trigger excystation (infectivity assay developed by [Keegan et al., 2003]). After a third centrifugation step at 1800 g for 10 min, oocysts were suspended in a maintenance medium. The maintenance medium consisted of RPMI 1640 medium with 2 mM l-glutamine, 5 mM glucose, 0.5 μM folic acid, 7 μM 4-amino-benzoic acid, 0.1 μM calcium pantothenate, 50 nM ascorbic acid, 2 % (vol/vol) heat inactivated fetal calf serum and 100 U/mL of streptomycin/penicillin. Before oocyst inoculation, the growth medium was switched with maintenance medium. Triggered oocysts were finally added on monolayers and incubated during 48 h at 37 °C in a 5 % (vol/vol) CO2 atmosphere.
(§3) The compounds (2 mg/mL in DMSO) were diluted to 500 μM and serially diluted in maintenance medium. The cytotoxicity of the compounds was assessed using the CytoTox 96® Non-Radioactive Cytotoxicity Assay (Promega, G1790) in accordance with the manufacturer's protocol.
The COWP gene (GenBank no. AF248743) was amplified by qPCR following the previously described protocol ([Guy et al., 2003]), and the parasitic concentration was determined using the standard range of C. parvum oocyst concentrations. Briefly, serial dilutions from a pure C. parvum oocyst suspension were made starting from a stock solution of 5 × 10^7 oocysts (4 × 10^5 – 2 × 10^5 – 1 × 10^5 – […]–2.5 × 10^3–1.25 × 10^3 oocysts) and the standard curve for quantifying parasites was created to obtain a correlation between Cq values and the Log of concentration.
At the end of the experiment, supernatants from the C. parvum-infected cell cultures were collected. The cell layers were then washed (1x PBS), detached using trypsin (0.25 %), and centrifuged (10,000×g, 10 min). The resulting cell pellet was re-suspended in 150–200 μL of sterile 1x PBS and stored at −20 °C for later DNA extraction. DNA extraction of C. parvum was performed using the Purelink™ Microbiome Purification Kit (Invitrogen™) following the manufacturer's protocol “Transport Media and Microbial Culture Samples” ([Invitrogen, 2015]).
FRePCR reactions were formulated to a volume of 25 μL and comprised of 1.25 μL of primers (10 μM), 0.05 μL probe (100 μM), 12.5 μL Master Mix 2X, LightCycler 480 Probes Master (ref. 04707494001, Roche), 4.95 μL H2O nuclease-free and 5 μL of DNA template. Quantitative PCR was run on a CFX96 real time PCR system (BioRad) with an initial step of activation (10 min 95 °C) following by 40 cycles with cycling conditions as follows: 95 °C for 10 s, 60 °C for 1 min. BioRad CFX manager software was used to analyse the data. Samples were considered negative if Cq ≥ 40.
A common way of defining a 50 % response is to use a mathematical model like the 4-parameter logistic model (4 PL) ([Sebaugh, 2011]). […]
(Quantitative PCR measures a nucleic acid by following its amplification.)

Series [2] has as its system C. parvum. The series is described as follows: Quantification of C. parvum development in HCT-8 cells by immunofluorescence microscopy. It is filed as cell-based, Cryptosporidium parvum (Iowa strain) in human HCT-8 cells. Conditions: for reduction in parasite quantification: 7.5 μM. Here is the method: as §1, §2
After aspiration of the supernatant from the Nunc™ Lab-Tek™ Chamber slide wells, cells were rinsed with PBS 1X. A fixation step was then performed using methanol during 8 min at 4 °C. Cryptosporidium developmental forms were labelled with a polyclonal IgG antibodies reaction kit tagged with Cy3 (Sporo-Glo™, Waterborne Inc.) and oocysts were labelled with FL-Crypt-a-Glo™, a fluorescein-labelled mouse monoclonal antibody made to oocyst outer wall antigenic sites (epitopes) of C. parvum. Antibodies were 1/20th diluted and incubated on cells for 1 h at room temperature. DNA was labelled with Hoechst for 5 min at room temperature. Slides were then coverslipped with a no fading mounting medium (Waterborne Inc.) and observed with a Leica DMi8 microscope. Each dilution was performed in triplicate and, for each well, ten images were taken at 400× magnification. Parasite quantification was carried out automatically using the StarDist neural network, which was specifically trained to detect and quantify C. parvum parasites.
To confirm our initial findings, we employed an alternative method using immunofluorescence microscopy to quantify C. parvum development in the presence of inhibitors (Fig. S1). […] The results corroborated our initial screening data, confirming the high efficacy of all tested chloronitrophenyl urea analogues, except for imidazole derivatives 18 and 19.
To test this hypothesis, increasing concentrations of squaramide 32 (i.e. 0, 2, 4 and 8 μM) were applied at different infection times: at 0 hpi (hours post infection), to assess the impact on parasite invasion; at 4 hpi, to examine the effect on the early stages of intracellular development; and at 30 hpi, to evaluate the influence on late stage intracellular development. The microscopic images in Fig. 7 illustrate the effect of 32 when applied at the onset of infection and at 30 hpi. Using fluorescent antibodies, the intracellular development of C. parvum is highlighted by green fluorescence, which allows for quantification of the number of parasites per image.

For a further series, the system named is HCT-8 cells. The series is described as follows: CytoTox 96 Non-Radioactive Cytotoxicity Assay. The class given is cell-based, Human. Conditions: for Viability: 10 µM. As for the experimental part: as §1, §3
(§4) An initial screening experiment was conducted on the full library to evaluate the cytotoxicity effects on HCT-8 cells. Nitrophenylurea 12 was identified as being cytotoxic so was not progressed further (See Supporting Information). In total, 21 candidates were assessed for their ability to inhibit C. parvum replication at a concentration of 10 μM. Each compound was added at the start of the infection of HCT-8 cells (T0) and remained in the culture for 48 h post infection (hpi). Parasitic quantification was then performed using a molecular method (qPCR). Of the 21 compounds tested, nine were effective inhibitors, reducing parasite proliferation by 80 % or more (Fig. 6). A clear trend emerged with all of the benzyl-substituted ureas 6–10 displaying poor inhibitory activity, regardless of the attached heteroaryl substituent. […] Two exceptions to this were imidazole-containing analogues 18 and 19. […] Among the squaramide series, the results were highly dependent on the nature of the substituent, ranging from high (e.g. ketone 29, furan 32), medium (e.g. 3-pyrazole 30) to low (e.g. 4-pyrazole 31) anti-cryptosporidial activity.

The subject of series [3] is C. parvum. Also noted: method as in Funkhouser-Jones et al., 2020. To be noted: ref Funkhouser-Jones et al., 2020; cited from earlier work.
The subject of another series is Cryptosporidium. To be noted: cited from earlier work.
Series [4] can be described thus: CytoTox 96 Non-Radioactive Cytotoxicity Assay. It is filed as cell-based, Human. Conditions: human; HCT-8 cells, 10 µM. As for the experimental part: as §1, §3, §4

Molecules are shown by their SMILES.

Turning to `CC(C)(Nc1c(Nc2ccc(Cl)c([N+](=O)[O-])c2)c(=O)c1=O)c1cccc(-c2ccco2)c1` [Compound 32, (2-((4-Chloro-3-nitrophenyl)amino)-3-((2-(3-(furan-2-yl)phenyl)propan-2-yl)amino)-4-oxocyclobut-2-en-1-ylidene)oxonium], the “anti-cryptosporidial activity (in words)” value with C. parvum [1] (10 μM) was “high”. In addition, the “inhibition rate of C. parvum replication” value in the series with C. parvum [1] (10 μM, added at start of infection (T0), 48 hpi, mean ± SD (n = 3 wells)) was 87.2 ± 0.8%. Further, in the series on C. parvum [1] (compounds at 0, 3, 6 and 9 μM added at t0 and left until 48 hpi, read-out: IC50), the concentration for half-maximal inhibition (IC50) (in general, the concentration that inhibits the measured activity by half) was determined as 2200 nM. Also, in the series with C. parvum [2] (2 μM, applied at onset of infection (0 hpi)), the “effect on intracellular development (green fluorescence)” value was “significantly reduces green fluorescence”. The “effect on distribution of parasite area” value with C. parvum [2] (7.5 μM or 15 μM, added at 30 hpi until 48 hpi) is “decreases the prevalence of both small and large parasites”. For the same compound, the “reduction in parasite quantification” value is more than 80% with C. parvum [2] (added at 0 hpi, fluorescence microscopy) and 46% with C. parvum [2] (added at 30 hpi, until 48 hpi, fluorescence microscopy). In the series on C. parvum [2] (8 μM, added at 30 hpi, 18 h of treatment, fluorescence microscopy), the “reduction of parasite load” value is given as less than 50%. Also, the Viability in the series with HCT-8 cells was 94.94%.

As to `CNC(=O)c1ccc(-c2cnc3cnc(C(=O)N(C)c4ccc(Cl)cc4)cn23)cc1` [KDU691], the “stage-specific effect on C. parvum development (in words)” value in the series on C. parvum [3] is on record as “effective at later stages”.

As to `COc1ccc(NC(=O)N2CCCCN3[C@H](CN(C)C)[C@H](c4ccc(C#Cc5ccccc5)cc4)[C@@H]3C2)cc1` [BRD7929], the “stage-specific effect on C. parvum development (in words)” value with C. parvum [3] was “blocks nuclear division and arrest development at the trophozoite”.

For `CC(=O)Oc1ccccc1C(=O)Nc1ncc([N+](=O)[O-])s1` [nitazoxanide], the “efficacy in immunocompromised patients (in words)” value in the series on Cryptosporidium (even when administered in high doses, ref Rossignol et al., 1998) was “ineffective”. Moreover, the “efficacy in children (in words)” value in the series on Cryptosporidium (ref Amadi et al., 2002) is on record as “limited”.

Turning to `CC(C)(NC(=O)Nc1ccc(Cl)c([N+](=O)[O-])c1)c1cccc(-c2cccc([N+](=O)[O-])c2)c1` [Compound 12, 1-(4-chloro-3-nitrophenyl)-3-(2-(3′-nitro-[1,1′-biphenyl]-3-yl)propan-2-yl)urea], in the series on HCT-8 cells (initial screening), the “cytotoxicity (in words)” value is “cytotoxic”. In series [4], the viability (usually a read-out of living cells in per cent, often relative to untreated cells) at 10 µM was 58%.

Turning to `CC(C)(Nc1c(Nc2ccc(Cl)c([N+](=O)[O-])c2)c(=O)c1=O)c1cccc(-c2cn[nH]c2)c1` [Compound 31, (3-((2-(3-(1H-Pyrazol-4-yl)phenyl)propan-2-yl)amino)-2-((4-chloro-3-nitrophenyl)amino)-4-oxocyclobut-2-en-1-ylidene)oxonium], the “anti-cryptosporidial activity (in words)” value in the series with C. parvum [1] (10 μM) is reported as “low”. In addition, the Viability with HCT-8 cells is recorded as 96.97%.
